Results published in ChEMBL document CHEMBL1201862, “PubChem BioAssay data set” (2004).
Activity calls are given as the source filed them.

How the values were obtained:
[1] = target: T1, Caspase-3 (Homo sapiens, UniProt P42574); format: functional;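 further: Dose-response selectivity test against caspase-3 for candidate inhibitors of sentrin-specific proteases (SENPs)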
T1 sequence (P42574 whole entry): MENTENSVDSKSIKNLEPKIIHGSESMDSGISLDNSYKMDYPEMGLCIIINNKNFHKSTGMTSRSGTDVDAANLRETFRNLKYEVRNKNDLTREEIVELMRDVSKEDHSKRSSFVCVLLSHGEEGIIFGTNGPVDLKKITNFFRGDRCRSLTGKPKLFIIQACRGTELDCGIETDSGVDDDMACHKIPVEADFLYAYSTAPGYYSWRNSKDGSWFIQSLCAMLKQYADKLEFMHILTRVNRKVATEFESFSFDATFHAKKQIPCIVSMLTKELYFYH

[2] = target: T2, Sentrin-specific protease 7 (Homo sapiens, UniProt Q9BQF6); format: functional;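 further: Luminescence-based dose-response confirmation of ultra-high-throughput screening hits, measuring inhibition of SENP7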
T2 sequence (Q9BQF6 whole entry): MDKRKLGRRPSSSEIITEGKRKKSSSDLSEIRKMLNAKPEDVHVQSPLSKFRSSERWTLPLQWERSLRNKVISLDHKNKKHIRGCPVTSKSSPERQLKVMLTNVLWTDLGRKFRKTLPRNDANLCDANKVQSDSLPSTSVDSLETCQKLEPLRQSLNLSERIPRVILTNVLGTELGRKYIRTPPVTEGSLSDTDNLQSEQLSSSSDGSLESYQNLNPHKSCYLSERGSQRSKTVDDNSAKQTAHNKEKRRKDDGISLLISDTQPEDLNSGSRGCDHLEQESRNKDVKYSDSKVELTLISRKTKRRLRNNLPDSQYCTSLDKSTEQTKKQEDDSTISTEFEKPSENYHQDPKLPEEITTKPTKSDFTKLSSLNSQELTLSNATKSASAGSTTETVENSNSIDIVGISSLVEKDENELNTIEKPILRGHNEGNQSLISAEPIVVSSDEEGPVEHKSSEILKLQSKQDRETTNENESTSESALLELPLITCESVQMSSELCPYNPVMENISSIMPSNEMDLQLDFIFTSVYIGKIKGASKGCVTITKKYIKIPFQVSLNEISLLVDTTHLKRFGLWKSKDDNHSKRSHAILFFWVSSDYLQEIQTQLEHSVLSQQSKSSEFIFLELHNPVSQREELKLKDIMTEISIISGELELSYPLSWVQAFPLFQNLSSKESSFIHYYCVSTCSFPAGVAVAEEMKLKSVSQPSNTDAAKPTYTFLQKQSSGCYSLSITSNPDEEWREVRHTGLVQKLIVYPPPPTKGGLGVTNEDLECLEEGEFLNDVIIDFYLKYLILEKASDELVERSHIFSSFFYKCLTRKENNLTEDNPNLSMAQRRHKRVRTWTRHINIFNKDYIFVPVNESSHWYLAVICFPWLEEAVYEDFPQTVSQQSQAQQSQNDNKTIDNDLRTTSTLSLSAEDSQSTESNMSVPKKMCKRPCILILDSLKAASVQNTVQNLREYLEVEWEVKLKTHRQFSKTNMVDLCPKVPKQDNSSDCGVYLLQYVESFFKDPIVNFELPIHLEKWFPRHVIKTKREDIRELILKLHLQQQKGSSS

[3] = target: T3, Sentrin-specific protease 6 (Homo sapiens, UniProt Q9GZR1); format: functional;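 further: Luminescence-based dose-response confirmatory assay of SENP6 inhibition, following up an ultra-high-throughput screen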
T3 sequence (Q9GZR1 whole entry): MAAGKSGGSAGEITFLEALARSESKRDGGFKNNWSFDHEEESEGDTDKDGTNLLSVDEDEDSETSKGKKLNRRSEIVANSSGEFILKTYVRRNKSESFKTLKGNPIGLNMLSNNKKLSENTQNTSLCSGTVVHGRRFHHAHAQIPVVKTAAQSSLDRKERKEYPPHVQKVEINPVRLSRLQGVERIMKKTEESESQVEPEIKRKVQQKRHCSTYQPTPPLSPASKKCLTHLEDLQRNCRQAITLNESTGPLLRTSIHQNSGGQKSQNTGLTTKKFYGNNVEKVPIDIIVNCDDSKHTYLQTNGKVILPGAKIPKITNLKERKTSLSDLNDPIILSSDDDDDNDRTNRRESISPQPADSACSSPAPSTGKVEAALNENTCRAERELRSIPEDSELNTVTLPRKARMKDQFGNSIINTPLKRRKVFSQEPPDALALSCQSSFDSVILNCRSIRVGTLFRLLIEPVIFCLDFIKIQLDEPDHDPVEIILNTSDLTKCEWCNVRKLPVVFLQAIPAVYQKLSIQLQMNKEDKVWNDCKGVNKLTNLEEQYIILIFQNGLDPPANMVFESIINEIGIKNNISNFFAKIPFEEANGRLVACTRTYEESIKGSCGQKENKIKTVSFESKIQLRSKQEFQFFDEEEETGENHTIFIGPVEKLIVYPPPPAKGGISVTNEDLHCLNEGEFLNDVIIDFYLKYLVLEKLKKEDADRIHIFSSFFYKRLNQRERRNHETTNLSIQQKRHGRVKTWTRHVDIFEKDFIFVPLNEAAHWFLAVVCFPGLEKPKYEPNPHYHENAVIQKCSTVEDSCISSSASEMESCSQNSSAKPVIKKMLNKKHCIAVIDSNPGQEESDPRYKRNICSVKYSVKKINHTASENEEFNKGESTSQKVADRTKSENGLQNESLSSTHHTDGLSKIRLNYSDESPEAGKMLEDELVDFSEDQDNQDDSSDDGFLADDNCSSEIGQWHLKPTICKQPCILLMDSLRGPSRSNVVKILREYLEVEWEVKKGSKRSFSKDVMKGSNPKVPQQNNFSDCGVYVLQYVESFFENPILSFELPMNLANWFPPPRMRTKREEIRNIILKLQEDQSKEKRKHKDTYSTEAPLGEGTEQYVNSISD

[4] = target: T4, Sentrin-specific protease 8 (Homo sapiens, UniProt Q96LD8); format: functional;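 further: luminescence read-out of SENP8 inhibition, dose-response confirmation following an ultra-high-throughput screen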
T4 sequence (Q96LD8 whole entry): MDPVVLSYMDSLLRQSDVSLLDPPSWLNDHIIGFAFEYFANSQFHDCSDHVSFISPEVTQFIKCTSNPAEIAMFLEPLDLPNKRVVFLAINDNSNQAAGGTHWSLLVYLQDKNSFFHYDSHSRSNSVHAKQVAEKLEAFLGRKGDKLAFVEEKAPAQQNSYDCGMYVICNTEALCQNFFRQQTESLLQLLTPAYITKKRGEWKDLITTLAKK

[5] = target: T5, Protein skinhead-1 (Caenorhabditis elegans, UniProt P34707); format: functional
T5 sequence (P34707 whole entry): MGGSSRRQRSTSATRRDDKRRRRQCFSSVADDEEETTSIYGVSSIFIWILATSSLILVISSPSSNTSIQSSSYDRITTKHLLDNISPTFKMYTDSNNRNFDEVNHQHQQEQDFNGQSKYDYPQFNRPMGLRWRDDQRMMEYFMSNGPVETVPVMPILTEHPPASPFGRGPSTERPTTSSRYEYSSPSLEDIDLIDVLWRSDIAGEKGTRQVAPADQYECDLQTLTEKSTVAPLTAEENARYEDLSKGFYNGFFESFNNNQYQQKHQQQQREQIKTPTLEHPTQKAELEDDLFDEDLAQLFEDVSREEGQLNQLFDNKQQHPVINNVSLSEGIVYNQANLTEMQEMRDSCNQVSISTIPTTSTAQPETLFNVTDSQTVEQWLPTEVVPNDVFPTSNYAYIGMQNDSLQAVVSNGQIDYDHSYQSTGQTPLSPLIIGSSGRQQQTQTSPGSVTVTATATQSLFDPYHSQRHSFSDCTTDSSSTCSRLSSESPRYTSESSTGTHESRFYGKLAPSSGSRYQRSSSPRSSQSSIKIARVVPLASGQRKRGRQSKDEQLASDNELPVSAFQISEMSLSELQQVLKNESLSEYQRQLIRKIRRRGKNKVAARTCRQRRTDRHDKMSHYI

[6] = Luminescence Cell-Based Dose Confirmation HTS to Identify Activators of 5'UTR Stem-Loop Driven Alpha-Synuclein mRNA Translation in H4 Neuroglioblastoma Cells. [Related pubchem assays: 1829 (Project Summary), 1814 (Primary HTS)]; format: functional
[7] = Luminescence Cell-Based Dose Response HTS to Identify Activators of Luciferase Translation or Activity in H4 […] Cells. [Related pubchem assays: 1829 (Project Summary), 1814 (Primary HTS)]; format: functional
[8] = tested on: H4; assay: Luminescence Cell-Based Dose Response HTS to Identify Activators of 5'UTR Stem-Loop Driven Prion Protein mRNA Translation in H4 Neuroglioblastoma Cells. [Related pubchem assays: 1829 (Project Summary), 1814 (Primary HTS)]; format: functional; details: Homo sapiens
[9] = target: T6, Adenosylmethionine-8-amino-7-oxononanoate aminotransferase (Mycobacterium tuberculosis, UniProt P9WQ81); assay: Mycobacterium tuberculosis BioA enzyme inhibitor Measured in Biochemical System Using Plate Reader - 2163-02_Inhibitor_Dose_CherryPick_Activity.; format: functional, Mycobacterium tuberculosis UT205
T6 sequence (P9WQ81 whole entry): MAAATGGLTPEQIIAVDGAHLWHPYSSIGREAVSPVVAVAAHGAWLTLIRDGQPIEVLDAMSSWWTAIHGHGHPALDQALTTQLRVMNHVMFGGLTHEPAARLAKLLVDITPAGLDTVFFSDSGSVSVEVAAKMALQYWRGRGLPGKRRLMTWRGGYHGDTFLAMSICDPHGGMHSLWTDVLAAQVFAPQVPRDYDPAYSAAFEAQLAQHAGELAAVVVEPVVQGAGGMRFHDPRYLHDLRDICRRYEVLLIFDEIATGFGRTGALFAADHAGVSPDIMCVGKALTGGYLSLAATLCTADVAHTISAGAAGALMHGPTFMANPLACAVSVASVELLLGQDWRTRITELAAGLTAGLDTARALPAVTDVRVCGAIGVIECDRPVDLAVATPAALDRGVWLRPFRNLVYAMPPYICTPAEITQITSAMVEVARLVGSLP

[10] = Trypanosoma cruzi growth suppression in host cells – NIH3T3 host cells, beta-gal luminescence, confirmation (AID 2044); format: functional, cell-based;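 further: intracellular parasites grown in NIH/3T3 mouse fibroblasts as host cells; luminescent beta-galactosidase reporter signal from transgenic T. cruzi replicating inside host cells; inhibitors lower the luminescence signal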
[11] = NIH3T3 cell viability loss – ATP luminescence, mouse fibroblasts, counter-screen, dose response (AID 2010); format: functional, cell-based;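 further: cells exposed to compound for about 90 hours before reading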
[12] = target: T7, Apoptotic protease-activating factor 1 (Homo sapiens, UniProt O14727); format: functional
T7 sequence (O14727 whole entry): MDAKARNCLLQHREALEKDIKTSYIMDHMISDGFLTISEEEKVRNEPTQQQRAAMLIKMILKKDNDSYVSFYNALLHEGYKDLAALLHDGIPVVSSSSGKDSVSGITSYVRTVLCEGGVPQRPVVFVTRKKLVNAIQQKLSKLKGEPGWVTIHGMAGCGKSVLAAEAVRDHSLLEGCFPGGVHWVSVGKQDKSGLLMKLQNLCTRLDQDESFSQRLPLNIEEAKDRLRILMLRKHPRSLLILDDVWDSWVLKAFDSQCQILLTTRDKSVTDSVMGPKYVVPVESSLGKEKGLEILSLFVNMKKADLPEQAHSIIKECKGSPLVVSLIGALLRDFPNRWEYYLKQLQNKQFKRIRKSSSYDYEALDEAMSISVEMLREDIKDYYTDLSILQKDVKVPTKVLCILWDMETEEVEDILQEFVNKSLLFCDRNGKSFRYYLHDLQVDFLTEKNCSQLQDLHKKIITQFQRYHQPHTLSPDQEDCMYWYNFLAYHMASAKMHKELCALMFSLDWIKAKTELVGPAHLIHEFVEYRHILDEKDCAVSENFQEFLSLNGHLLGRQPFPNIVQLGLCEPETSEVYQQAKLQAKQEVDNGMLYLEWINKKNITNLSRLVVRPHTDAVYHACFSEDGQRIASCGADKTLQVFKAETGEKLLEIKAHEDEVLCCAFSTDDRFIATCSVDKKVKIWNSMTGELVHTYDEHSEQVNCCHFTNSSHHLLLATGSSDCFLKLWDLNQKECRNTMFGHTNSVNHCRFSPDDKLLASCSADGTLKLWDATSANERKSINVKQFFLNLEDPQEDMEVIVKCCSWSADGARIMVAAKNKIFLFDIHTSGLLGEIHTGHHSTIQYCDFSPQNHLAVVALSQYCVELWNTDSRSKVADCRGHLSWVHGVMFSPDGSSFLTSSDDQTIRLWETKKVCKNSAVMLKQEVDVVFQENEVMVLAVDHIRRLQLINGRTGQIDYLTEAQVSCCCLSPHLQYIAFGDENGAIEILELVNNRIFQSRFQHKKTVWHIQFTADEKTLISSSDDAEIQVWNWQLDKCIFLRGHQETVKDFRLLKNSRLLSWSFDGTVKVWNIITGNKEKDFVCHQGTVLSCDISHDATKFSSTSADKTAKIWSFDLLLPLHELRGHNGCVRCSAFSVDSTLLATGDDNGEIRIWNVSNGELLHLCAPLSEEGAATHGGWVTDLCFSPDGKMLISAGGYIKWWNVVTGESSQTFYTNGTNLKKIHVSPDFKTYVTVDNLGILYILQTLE

For `c1ccc(CCNc2ncnc3c2cnn3-c2ccccc2)cc1`, the IC50 [1] was 22.5 µM (active), the IC50 [2] was 7.14 µM (active) and the IC50 [3] was 19.6 µM (active). For the same compound, the IC50 [4] was 22.9 µM (active) and the IC50 [5] was > 100 µM (inactive).

With `O=C(O)c1ccc(COc2ccccc2[N+](=O)[O-])o1` the IC50 [1] was > 100 µM (inactive), the IC50 [2] was 10.5 µM (active) and the IC50 [3] was 35.6 µM (active). For the same compound, the IC50 [4] was 31.3 µM (active).

For `COc1ccc(-c2noc(Cc3cccs3)n2)cc1`, the EC50 [6] was 24.9 µM (active), the EC50 [7] was 0.501 µM (active) and the EC50 [8] was > 120 µM (not active). For the same compound, the IC50 [1] was 27.3 µM (active), the IC50 [2] was 9.93 µM (active) and the IC50 [3] was 31.8 µM (active). The IC50 [4] was 25 µM (active).

With `O=C(Nc1ccc(N2CCOCC2)c(Cl)c1)c1cccnc1` the AC50 [9] was 13.3 µM (active).

For `COc1ccc(C/N=C/c2[nH]c3ccc(Br)c(Cl)c3c2O)cc1`, the EC50 [10] was 1.31 µM (active), the EC50 [11] was > 60 µM (not active) and the IC50 [12] was 59.2 µM (active).

For `CN(Cc1ccccc1)C(=O)CCS(=O)(=O)c1ccc2c(c1)NC(=O)CS2`, the AC50 [9] was 3.51 µM (active).

With `O=C(N/N=C/C(Cl)=C\c1ccccc1)c1cccs1` the IC50 [1] was 28.7 µM (active), the IC50 [2] was 5.83 µM (active) and the IC50 [3] was > 100 µM (inactive). For the same compound, the IC50 [4] was > 100 µM (inactive).

In the case of `O=C(C[C@@H]1C[C@@H]2c3cc(NC(=O)c4cccnc4)ccc3O[C@@H]2[C@@H](CO)O1)NCc1cccnc1`, the AC50 [9] was 10.7 µM (active).
